Usually IC50 stands for the concentration at which inhibition is half-maximal. Read a high IC50 as lower potency.

For one experiment, the system named is GP2D (KRAS G12D). As to the kind of experiment: Cell proliferation assay (CellTiter-Glo, 72 hours), GP2D. It is filed as cell-based. The conditions noted are these: 384-well, CellTiter-Glo 2.0. As for the experimental part:
(§1) Two thousand KRAS mutant cells per well were seeded in 384-well white plate and then treated with indicated compounds for 72 hours at 37° C. and 5% CO2. Cell proliferation was measured using CellTiter-Glo 2.0 luciferase-based ATP detection assay (Promega, Madison, WI) following the manufacturer's protocol. IC50 values were determined using Prism software (GraphPad Software, San Diego, CA).
(In ATP-based viability assays light output follows the ATP content of the culture.)

A further experiment concerns AGS (G12D). As to the kind of experiment: Cell proliferation assay (CellTiter-Glo, 72 hours), AGS. The format is cell-based. Conditions: 384-well, CellTiter-Glo 2.0. The method, then: as §1
A further experiment deals with SW620 (KRAS G12V). Put plainly: Cell proliferation assay (CellTiter-Glo, 72 hours), SW620. It is filed as cell-based. Conditions: 384-well, CellTiter-Glo 2.0. As for the experimental part:
as §1

The target in a further experiment is KRAS G12V (Homo sapiens, UniProt P01116, G12V). As to the kind of experiment: biochemical.
KRAS G12V, sequence (P01116 1-188 isoform P01116-2 G12V): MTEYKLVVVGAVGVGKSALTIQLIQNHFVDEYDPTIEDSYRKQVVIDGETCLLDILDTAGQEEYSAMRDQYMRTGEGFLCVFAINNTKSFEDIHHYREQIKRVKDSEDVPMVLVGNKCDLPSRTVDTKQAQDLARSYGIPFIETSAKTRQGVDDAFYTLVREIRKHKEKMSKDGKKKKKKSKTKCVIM
For another experiment, the target named is KRAS G12D (Homo sapiens, UniProt P01116, G12D). Put plainly: biochemical.
KRAS G12D, sequence (P01116 1-188 isoform P01116-2 G12D): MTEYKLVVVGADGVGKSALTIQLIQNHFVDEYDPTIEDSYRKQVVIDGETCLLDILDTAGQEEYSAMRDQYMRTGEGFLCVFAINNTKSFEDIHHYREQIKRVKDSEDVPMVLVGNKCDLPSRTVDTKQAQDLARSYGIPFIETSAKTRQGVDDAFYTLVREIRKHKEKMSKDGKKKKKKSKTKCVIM

Some results are limits rather than exact numbers.

For `C#Cc1c(F)ccc2cc(O)cc(-c3nc4c5c(nc(OC[C@@]67CCCN6C[C@H](F)C7)nc5c3F)N(C)[C@@H](C)CO4)c12` [Example 50, 5-ethynyl-6-fluoro-4-[(9S)-4-fluoro-2-{[(2R,7aS)-2-fluorotetrahydro-1H-pyrrolizin-7a(5H)-yl]methoxy}-9,10-dimethyl-9,10-dihydro-8H-7-oxa-1,3,6,10-tetraazacyclohepta[1,2,3-de]naphthalen-5-yl]naphthalen-2-ol], the IC50 in the experiment with GP2D (KRAS G12D) (GP2d, 72 h) turned out to be 8.94 nM; in the experiment with AGS (G12D) (72 h), 28.4 nM; in the experiment with SW620 (KRAS G12V) (Homo sapiens, SW-620, 72 h), 25.7 nM; at KRAS G12V it was 1.99 nM; on KRAS G12D it was 1.71 nM.
For `C#Cc1c(F)ccc2cc(O)cc(-c3nc4c5c(nc(OC[C@@]67CCCN6C[C@H](F)C7)nc5c3F)NCCC4)c12` [Example 122, 5-ethynyl-6-fluoro-4-(4-fluoro-2-{[(2R,7aS)-2-fluorotetrahydro-1H-pyrrolizin-7a(5H)-yl]methoxy}-7,8,9,10-tetrahydro-1,3,6,10-tetraazacyclohepta[1,2,3-de]naphthalen-5-yl)naphthalen-2-ol] the same measures were 2410 nM, 5490 nM, 4900 nM, 16.9 nM and 14.8 nM.
In the case of `C#Cc1c(F)ccc2cc(O)cc(-c3nc4c5c(nc(OC[C@@]67CCCN6C[C@H](F)C7)nc5c3F)N3CCC[C@@H](O)[C@H]3CO4)c12` [compound 25, (8aR,9R)-5-(8-ethynyl-7-fluoro-3-hydroxynaphthalen-1-yl)-4-fluoro-2-{[(2R,7aS)-2-fluorotetrahydro-1H-pyrrolizin-7a(5H)-yl]methoxy}-8,8a,9,10,11,12-hexahydro-7-oxa-1,3,6,12a-tetraazabenzo[4,5]cyclohepta[1,2,3-de]naphthalen-9-ol], the IC50 with GP2D (KRAS G12D) (GP2d, 72 h) is 76.4 nM; with AGS (G12D) (72 h) it was 166 nM; in the experiment with SW620 (KRAS G12V) (Homo sapiens, SW-620, 72 h) it was 654 nM; at KRAS G12V it was 2.16 nM; at KRAS G12D, 2.03 nM.
In the case of `Cc1cc(N)nc(-c2nc3c4c(nc(OC[C@@]56CCCN5C[C@H](F)C6)nc4c2F)N2CCCC[C@H]2CO3)c1C(F)(F)F` [Example 43, 6-[(8aS)-4-fluoro-2-{[(2R,7aS)-2-fluorotetrahydro-1H-pyrrolizin-7a(5H)-yl]methoxy}-8,8a,9,10,11,12-hexahydro-7-oxa-1,3,6,12a-tetraazabenzo[4,5]cyclohepta[1,2,3-de]naphthalen-5-yl]-4-methyl-5-(trifluoromethyl)pyridin-2-amine], the IC50 in the experiment on GP2D (KRAS G12D) (GP2d, 72 h) was 2120 nM; in the experiment with AGS (G12D) (72 h), more than 3000 nM; in the experiment on SW620 (KRAS G12V) (Homo sapiens, SW-620, 72 h), more than 3000 nM; on KRAS G12V, 12.7 nM; on KRAS G12D, 16.3 nM.
Turning to `C#Cc1c(F)ccc2cc(O)cc(-c3nc4c5c(nc(OC[C@@]67CCCN6C[C@H](F)C7)nc5c3F)N(Cc3ccccc3)[C@@H](C)CO4)c12` [Example 74, 4-[(9S)-10-benzyl-4-fluoro-2-{[(2R,7aS)-2-fluorotetrahydro-1H-pyrrolizin-7a(5H)-yl]methoxy}-9-methyl-9,10-dihydro-8H-7-oxa-1,3,6,10-tetraazacyclohepta[1,2,3-de]naphthalen-5-yl]-5-ethynyl-6-fluoronaphthalen-2-ol], the IC50 with GP2D (KRAS G12D) (GP2d, 72 h) is 480 nM; with AGS (G12D) (72 h), 1480 nM; with SW620 (KRAS G12V) (Homo sapiens, SW-620, 72 h), 348 nM; against KRAS G12V it was 2.81 nM; against KRAS G12D it was 4 nM.
Regarding `C#Cc1c(F)ccc2cc(O)cc(-c3nc4c5c(nc(OC[C@@]67CCCN6C[C@H](F)C7)nc5c3F)N3[C@@H](COC[C@@H]3C)CO4)c12` [Example 59, 5-ethynyl-6-fluoro-4-[(8aS,12S)-4-fluoro-2-{[(2R,7aS)-2-fluorotetrahydro-1H-pyrrolizin-7a(5H)-yl]methoxy}-12-methyl-8a,9,11,12-tetrahydro-8H-7,10-dioxa-1,3,6,12a-tetraazabenzo[4,5]cyclohepta[1,2,3-de]naphthalen-5-yl]naphthalen-2-ol], the IC50 came out at 12.4 nM in the experiment with GP2D (KRAS G12D) (GP2d, 72 h); 70.6 nM with AGS (G12D) (72 h); 77.2 nM in the experiment with SW620 (KRAS G12V) (Homo sapiens, SW-620, 72 h); 3.08 nM against KRAS G12V; 2.66 nM on KRAS G12D.
Turning to `Fc1c(-c2c(Cl)ccc3[nH]ncc23)nc2c3c(nc(OC[C@@]45CCCN4C[C@H](F)C5)nc13)N1CCCC[C@H]1CO2` [Example 78, (7S)-12-(5-chloro-1H-indazol-4-yl)-13-fluoro-16-[[(2R,8S)-2-fluoro-1,2,3,5,6,7-hexahydropyrrolizin-8-yl]methoxy]-9-oxa-2,11,15,17-tetrazatetracyclo [8.7.1.02,7.014,18]octadeca-1 (17),10 (18),11,13,15-pentaene], the IC50 was more than 3000 nM in the experiment on GP2D (KRAS G12D) (GP2d, 72 h); more than 3000 nM in the experiment on AGS (G12D) (72 h); more than 3000 nM in the experiment with SW620 (KRAS G12V) (Homo sapiens, SW-620, 72 h); 51.9 nM against KRAS G12V; 40.2 nM against KRAS G12D.
Turning to `C#Cc1c(F)ccc2cc(O)cc(-c3nc4c5c(nc(OC[C@@]67CCCN6C[C@H](F)C7)nc5c3F)NCCO4)c12` [Example 82, 5-ethynyl-6-fluoro-4-(4-fluoro-2-{[(2R,7aS)-2-fluorotetrahydro-1H-pyrrolizin-7a(5H)-yl]methoxy}-9,10-dihydro-8H-7-oxa-1,3,6,10-tetraazacyclohepta[1,2,3-de]naphthalen-5-yl)naphthalen-2-ol], the IC50 with GP2D (KRAS G12D) (GP2d, 72 h) is 470 nM; with AGS (G12D) (72 h), 1440 nM; in the experiment on SW620 (KRAS G12V) (Homo sapiens, SW-620, 72 h), more than 3000 nM; against KRAS G12V, 2.79 nM; on KRAS G12D, 2.64 nM.
As to `C#Cc1c(F)ccc2cc(O)cc(-c3nc4c5c(nc(OC[C@@]67CCCN6C[C@H](F)C7)nc5c3F)N3CC(C#N)CCC3CO4)c12` (stereo partly drawn) [Example 109, 5-(8-ethynyl-7-fluoro-3-hydroxynaphthalen-1-yl)-4-fluoro-2-{[(2R,7aS)-2-fluorotetrahydro-1H-pyrrolizin-7a(5H)-yl]methoxy}-8,8a,9,10,11,12-hexahydro-7-oxa-1,3,6,12a-tetraazabenzo[4,5]cyclohepta[1,2,3-de]naphthalene-11-carbonitrile], the IC50 was 2000 nM in the experiment with GP2D (KRAS G12D) (GP2d, 72 h); more than 3000 nM with AGS (G12D) (72 h); more than 3000 nM in the experiment on SW620 (KRAS G12V) (Homo sapiens, SW-620, 72 h); 27 nM on KRAS G12V; 15.9 nM on KRAS G12D.
In the case of `Nc1nc2c(-c3nc4c5c(nc(OC[C@@]67CCCN6C[C@H](F)C7)nc5c3F)N3CCCC[C@H]3CO4)ccc(F)c2s1` [Example 40, 7-fluoro-4-[(8aS)-4-fluoro-2-{[(2R,7aS)-2-fluorotetrahydro-1H-pyrrolizin-7a(5H)-yl]methoxy}-8,8a,9,10,11,12-hexahydro-7-oxa-1,3,6,12a-tetraazabenzo[4,5]cyclohepta[1,2,3-de]naphthalen-5-yl]-1,3-benzothiazol-2-amine], the half-inhibitory concentration (IC50) in the experiment with GP2D (KRAS G12D) (GP2d, 72 h) is more than 3000 nM; in the experiment with AGS (G12D) (72 h) it was more than 3000 nM; in the experiment with SW620 (KRAS G12V) (Homo sapiens, SW-620, 72 h), more than 3000 nM; against KRAS G12V, 28.2 nM; against KRAS G12D, 30.1 nM.
As for `C#Cc1c(F)ccc2cc(O)cc(-c3cc4c5c(nc(OC[C@@]67CCCN6C[C@H](F)C7)nc5c3F)N3CCCC[C@H]3CO4)c12` [Example 45, 5-ethynyl-6-fluoro-4-[(8aS)-4-fluoro-2-{[(2R,7aS)-2-fluorotetrahydro-1H-pyrrolizin-7a(5H)-yl]methoxy}-8,8a,9,10,11,12-hexahydropyrido[2′,1′:3,4][1,4]oxazepino[5,6,7-de]quinazolin-5-yl]naphthalen-2-ol], the IC50 turned out to be 361 nM in the experiment with GP2D (KRAS G12D) (GP2d, 72 h); 621 nM in the experiment with AGS (G12D) (72 h); 321 nM in the experiment with SW620 (KRAS G12V) (Homo sapiens, SW-620, 72 h); 2.33 nM against KRAS G12V; 3.28 nM against KRAS G12D.
In the case of `Fc1c(-c2c(Cl)ccc3[nH]nc(Cl)c23)nc2c3c(nc(OC[C@@]45CCCN4C[C@H](F)C5)nc13)N1CCCC[C@H]1CO2` (atropisomer, axis not shown) [Example 84, (7S)-12-(3,5-dichloro-1H-indazol-4-yl)-13-fluoro-16-[[(2R,8S)-2-fluoro-1,2,3,5,6,7-hexahydropyrrolizin-8-yl]methoxy]-9-oxa-2,11,15,17-tetrazatetracyclo[8.7.1.02, 7.014,18]octadeca-1 (17),10 (18),11,13,15-pentaene], the IC50 is more than 3000 nM in the experiment with GP2D (KRAS G12D); more than 3000 nM in the experiment with AGS (G12D); more than 3000 nM with SW620 (KRAS G12V); 48 nM against KRAS G12V; 54.5 nM on KRAS G12D.
For `C#Cc1c(F)ccc2cc(O)cc(-c3nc4c5c(nc(OC[C@@]67CCCN6C[C@H](F)C7)nc5c3F)N3C[C@H](C#N)CC[C@H]3CO4)c12` [Example 118, (5aS,8R)-2-(8-ethynyl-7-fluoro-3-hydroxynaphthalen-1-yl)-1-fluoro-11-(((2R,7aS)-2-fluorotetrahydro-1H-pyrrolizin-7a(5H)-yl)methoxy)-5,5a,6,7,8,9-hexahydro-4-oxa-3,9a,10,12-tetraazabenzo[4,5]cyclohepta[1,2,3-de]naphthalene-8-carbonitrile], the IC50 with GP2D (KRAS G12D) (GP2d, 72 h) was more than 3000 nM; with AGS (G12D) (72 h) it was more than 3000 nM; in the experiment on SW620 (KRAS G12V) (Homo sapiens, SW-620, 72 h) it was more than 3000 nM; against KRAS G12V, 58.9 nM; on KRAS G12D it was 52.5 nM.
For the compound `C#Cc1c(F)ccc2cc(O)cc(-c3nc4c5c(nc(OC[C@@]67CCCN6C[C@H](F)C7)nc5c3F)N(C)C3(CC3)CO4)c12` [Example 93], the IC50 stood at 140 nM in the experiment on GP2D (KRAS G12D) (GP2d, 72 h); 560 nM in the experiment with AGS (G12D) (72 h); 981 nM in the experiment with SW620 (KRAS G12V) (Homo sapiens, SW-620, 72 h); 1.55 nM against KRAS G12V; 1.99 nM against KRAS G12D.

For the origin of these results see patent publication US20260008787A1, “FUSED RING KRAS INHIBITORS FOR TREATING DISEASE” (BLOSSOMHILL THERAPEUTICS, INC., priority 2022, published 2026).
